Among the test systems are LXFL 529 NSCLC; HOP-18 NSCLC; DLD-1 colon; XF 498 CNS; RXF-631 renal; MDA-MB-435; BT-549 breast; MCF7 breast; MDA-N.
Common to all, as to experiment: inhibition of tumour cell growth, NCI panel, 48 h

Values joined by “and” are separate entries in the source; they are usually repeats but may differ in a detail not shown here. Equal values may be shown once.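 All cell lines were grown in 96-well plates and treated with compound for 48 hours. GI50: concentration for 50% inhibition of growth. TGI is the concentration that stops growth completely.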

Consider `CC12OC3CC(O1)C1(C=O)C4CCC5(C)C(c6ccc(=O)oc6)CCC5(O)C4CCC1(C3)O2` (stereo not drawn), for which the TGI in the experiment on LXFL 529 NSCLC was 0.432 µM; with HOP-18 NSCLC, 0.748 µM; in the experiment with DLD-1 colon, 0.483 µM.

For `O=C(Nc1cc(Cl)c(Cl)cc1Cl)C(=O)C(C(=O)c1ccc2ccccc2c1)C1OC(=O)c2ccccc21` (stereo not drawn), the TGI in the experiment with LXFL 529 NSCLC was 22.6 µM; in the experiment with DLD-1 colon, 32.9 µM.

As to `O=C1C2Nc3ccccc3SC2C(=O)N1c1cccc([N+](=O)[O-])c1` (stereo not drawn), the TGI with LXFL 529 NSCLC, in the experiment with XF 498 CNS, in the experiment on RXF-631 renal and with DLD-1 colon was above 100 µM throughout.

With `Cc1cc(C)c2[s+]snc2c1`, the TGI in the experiment with LXFL 529 NSCLC, in the experiment on XF 498 CNS, in the experiment on HOP-18 NSCLC, in the experiment with RXF-631 renal and in the experiment on DLD-1 colon was above 100 µM each time.

For `CC[C@@]1(OC(=O)CN)C(=O)OCc2c1cc1n(c2=O)Cc2cc3c(N)c4c(cc3nc2-1)OCO4`, the GI50 was 0.00328 µM and 0.0183 µM with MDA-MB-435; 0.24 µM in the experiment with BT-549 breast; below 0.0001 µM in the experiment with MCF7 breast; 0.0127 µM with MDA-N. The molecule also yielded a TGI with MDA-N above 100 µM.

On to `CCc1oc2ccc(OC)c3c2c1C=CC=C3`, for which the TGI in the experiment with LXFL 529 NSCLC and in the experiment with DLD-1 colon was above 100 µM each time.

As for `CCC[CH2][Sn]1([CH2]CCC)[O]C(=O)c2cc(C)ccc2[O]1`, the GI50 with LXFL 529 NSCLC is 0.129 µM; in the experiment with DLD-1 colon, 0.537 µM. In addition, the TGI in the experiment with LXFL 529 NSCLC was 0.336 µM; in the experiment on DLD-1 colon it was 1.83 µM.

`O=C1c2cccc3cc([N+](=O)[O-])cc(c23)C(=O)N1O`: the TGI with MDA-MB-435 was above 100 µM; in the experiment with BT-549 breast, above 100 µM; with MCF7 breast it was 91.8 µM; in the experiment on MDA-N, above 100 µM.

Consider `CC(C)c1cccc(C(C)C)c1NC1=CC(=O)C(=O)c2ccccc21`, for which the TGI in the experiment on LXFL 529 NSCLC, with HOP-18 NSCLC, with RXF-631 renal and in the experiment on DLD-1 colon was above 100 µM each time.

With `CC(C)[O-].CC(C)[O-].[O-]c1cccc2cccnc12.[O-]c1cccc2cccnc12.[Ti+4]`, in the experiment on HOP-18 NSCLC, the TGI was above 100 µM. Besides, the GI50 in the experiment with DLD-1 colon was 4.97 µM.

On to `OC1C2C=CCC1CCC2` (stereo not drawn), for which the TGI in the experiment with XF 498 CNS, with HOP-18 NSCLC, in the experiment on RXF-631 renal and in the experiment with DLD-1 colon was above 100 µM each time.

Take `CCOC(=O)CNC(=O)C(CSC(=O)N(C)O)NC(=O)CCC(N)C(=O)O` (stereo not drawn): the GI50 with LXFL 529 NSCLC, in the experiment with HOP-18 NSCLC and in the experiment on DLD-1 colon was above 2000 µM throughout. Further, the TGI in the experiment with LXFL 529 NSCLC and with HOP-18 NSCLC was above 2000 µM throughout.

Turning to `C[C@]12CCCC(=O)C1C[C@H](C(=O)O)CC2` (stereo partly drawn), the TGI with LXFL 529 NSCLC, in the experiment with XF 498 CNS, in the experiment with HOP-18 NSCLC, with RXF-631 renal and in the experiment with DLD-1 colon was above 100 µM in each case.

For the molecule `CCOC(=O)C1CC/C(=C(/C#N)C(=O)OC)N1` (stereo not drawn), the TGI with LXFL 529 NSCLC, with XF 498 CNS and in the experiment with DLD-1 colon was above 100 µM throughout.

For `COc1cc2c3c(c1O)C1(C=CC(=O)C=C1)CC3N(C)CC2` (stereo not drawn), the TGI in the experiment with MDA-MB-435 was 23 µM; with BT-549 breast, 30.6 µM; in the experiment with MCF7 breast it was 20.5 µM; in the experiment on MDA-N, 24.2 µM.

`O=C1c2ccccc2C(=O)c2sc(Nc3ccc(Cl)c(Cl)c3)nc21`: the TGI with LXFL 529 NSCLC came to 3.53 µM; with XF 498 CNS, 6.04 µM; with HOP-18 NSCLC it was 14.3 µM; in the experiment on RXF-631 renal, 31.4 µM; with DLD-1 colon, 4.66 µM.

Regarding `NNC(=S)N/N=C/C(Cl)=C(\Cl)C(=O)O`, the TGI in the experiment on LXFL 529 NSCLC, in the experiment with XF 498 CNS and in the experiment on DLD-1 colon was above 100 µM in each case.

For `O=[N+]([O-])c1cc(/C=N/NS(=O)(=O)c2ccc(F)cc2)c(O)c([N+](=O)[O-])c1`, the TGI in the experiment with HOP-18 NSCLC and in the experiment on DLD-1 colon was above 100 µM throughout.

With `Cc1cc2c(cc1C)[n+]([O-])c(-c1c(Cl)cccc1Cl)c(N)[n+]2[O-]`, the TGI in the experiment with LXFL 529 NSCLC was above 100 µM; in the experiment with HOP-18 NSCLC it was 86.4 µM; with RXF-631 renal, 35.7 µM; in the experiment with DLD-1 colon, above 100 µM.

Take `Nn1c(N=Nc2c(O)[nH]c3ccccc23)n[nH]c1=S`: the TGI in the experiment with LXFL 529 NSCLC was above 100 µM; in the experiment on XF 498 CNS, 94 µM; in the experiment on HOP-18 NSCLC, above 100 µM; in the experiment on DLD-1 colon, above 100 µM.

Consider `CCOc1ccc(NC(=O)CCC(=O)NN)cc1`, for which the TGI in the experiment with LXFL 529 NSCLC is above 100 µM; in the experiment on XF 498 CNS, 95 µM; in the experiment with HOP-18 NSCLC, above 100 µM; with DLD-1 colon, above 100 µM.

Regarding `O=C1CCC(=O)C(C(=O)CCC(=O)Nc2cccc(Cl)c2)C1` (stereo not drawn), the TGI in the experiment with LXFL 529 NSCLC, with XF 498 CNS, in the experiment with HOP-18 NSCLC and in the experiment with DLD-1 colon was above 100 µM each time.

For the molecule `N#C/C(=C\c1ccc(O)cc1O)C(N)=O`, the TGI with LXFL 529 NSCLC, in the experiment with XF 498 CNS and in the experiment on DLD-1 colon was above 100 µM in each case.

In the case of `NC(=O)NC(=O)C1CCCCC1C(=O)O` (stereo not drawn), the TGI with MDA-MB-435, with BT-549 breast, in the experiment with MCF7 breast and with MDA-N was above 100 µM throughout.

Turning to `Nc1cccc2nsnc12`, the TGI in the experiment with MDA-MB-435, in the experiment on BT-549 breast, in the experiment with MCF7 breast and in the experiment on MDA-N was above 100 µM each time.

For the molecule `COC(=O)/C(=N\O)C(C(=O)C=C(C)C)C(=O)C(=O)Nc1ccccc1C` (stereo not drawn), the TGI in the experiment on LXFL 529 NSCLC, in the experiment with XF 498 CNS, in the experiment with HOP-18 NSCLC and in the experiment on DLD-1 colon was above 100 µM throughout.

In the case of `CC(C)(C)C(=O)[CH-]C(=O)C(F)(F)C(F)(F)C(F)(F)F.CC(C)(C)C(=O)[CH-]C(=O)C(F)(F)C(F)(F)C(F)(F)F.[O-]CC1OC(O)C(O)C(O)C1O.[O-]CC1OC(O)C(O)C(O)C1O.[Ti+4]`, the GI50 with LXFL 529 NSCLC is 71.4 µM; in the experiment on XF 498 CNS it was above 100 µM; in the experiment with HOP-18 NSCLC it was above 100 µM; in the experiment on DLD-1 colon, 67.4 µM. For the same molecule, the TGI with LXFL 529 NSCLC, in the experiment on XF 498 CNS, in the experiment on HOP-18 NSCLC and with DLD-1 colon was above 100 µM each time.

For the molecule `COC(=O)C(=O)C1CCCCC(C2=NC3NN=C(N)N3C2=O)C1=O` (stereo not drawn), the TGI with LXFL 529 NSCLC, in the experiment on XF 498 CNS, in the experiment with HOP-18 NSCLC, in the experiment on RXF-631 renal and with DLD-1 colon was above 100 µM in each case.

Take `CCOC(=O)C1(Cc2ccc3ccccc3c2)CCCCCN1` (stereo not drawn): the TGI in the experiment with LXFL 529 NSCLC was above 100 µM; with XF 498 CNS, 41.2 µM; in the experiment with HOP-18 NSCLC, above 100 µM; with DLD-1 colon it was 56.9 µM.

With `CP(C)C.[Ag][I]`, the TGI with LXFL 529 NSCLC is 31.8 µM; with XF 498 CNS it was 30.9 µM; in the experiment on HOP-18 NSCLC, above 100 µM; with RXF-631 renal, above 100 µM; in the experiment on DLD-1 colon it was above 100 µM.

Turning to `Cc1nc(N)sc1C(=O)/C=C/c1ccc([N+](=O)[O-])cc1`, the TGI in the experiment on HOP-18 NSCLC and in the experiment with DLD-1 colon was above 100 µM in each case.

As to `COC(=O)C1=Cc2c(OC)cc(OC)c(OC)c2[C@H](c2cc(OC)c(OC)cc2OC)C1C(=O)OC` (stereo partly drawn), the TGI in the experiment with LXFL 529 NSCLC, in the experiment with XF 498 CNS, in the experiment with RXF-631 renal and in the experiment on DLD-1 colon was above 100 µM in each case.

As to `C=C=[CH][Sn]([c]1ccccc1)([c]1ccccc1)[c]1ccccc1`, the GI50 was 1.58 µM with LXFL 529 NSCLC, 1.3 µM in the experiment on MDA-MB-435, 1.41 µM in the experiment with MCF7 breast and 1.48 µM in the experiment on DLD-1 colon. Besides, the TGI was found to be 3.02 µM in the experiment with LXFL 529 NSCLC, 2.68 µM in the experiment on MDA-MB-435, 2.81 µM in the experiment with MCF7 breast and 4.15 µM in the experiment on DLD-1 colon.

`O=C1c2ccccc2C(=O)c2c(NC(=O)c3ccc4c5c(ncnc35)-c3ccccc3C4=O)cccc21`: the TGI in the experiment with MDA-MB-435, in the experiment on BT-549 breast, in the experiment with MCF7 breast and in the experiment on MDA-N was above 100 µM each time.

Take `C=C1CC(C/C=C(\C)CC2CC(=C)C(=O)O2)OC1=O` (stereo not drawn): the TGI with LXFL 529 NSCLC, with XF 498 CNS, in the experiment with HOP-18 NSCLC, in the experiment on RXF-631 renal and in the experiment with DLD-1 colon was above 100 µM throughout.

In the case of `N#CC12Cc3ccc4c(c3-c3cccc(c31)CCN2C(=O)c1ccccc1)OCO4` (stereo not drawn), the TGI in the experiment with LXFL 529 NSCLC, in the experiment on XF 498 CNS, in the experiment on HOP-18 NSCLC and in the experiment with DLD-1 colon was above 100 µM each time.

As to `Cc1cccc(N=C2NC(=O)C(CC(=O)Nc3ccc(Cl)cc3C)S2)c1` (stereo not drawn), the TGI in the experiment on LXFL 529 NSCLC, in the experiment with HOP-18 NSCLC, in the experiment with RXF-631 renal and with DLD-1 colon was above 100 µM throughout.

As to `Cc1cc(=O)[nH]c(CNC(=O)Cc2ccccc2)n1`, the TGI in the experiment with LXFL 529 NSCLC, with XF 498 CNS and with DLD-1 colon was above 100 µM throughout.

For the origin of these results see PubChem BioAssay (NCI).
